Test results as given in publication PMC9241644, “Evaluation of Novel Quorum Sensing Inhibitors Targeting Auto-Inducer 2 (AI-2) for the Control of Avian Pathogenic Escherichia coli Infections in Chickens” (Microbiology Spectrum, 2022).

Columns and labels:
Rif^R APEC O78 = experiment: Optimization of therapeutic dose of QSI-5 in drinking water, APEC-infected chickens; type: in vivo, Escherichia coli; details: for mortality reduction compared with PC group: PC normalized to 100%; for Mortality rate % (Nr.) / Average lesion severity, Lung / Average lesion severity, Liver / Average lesion severity, Heart / Average lesion severity, Airsac / Average APEC load, Kidney / Average APEC load, Lung / Average APEC load, Heart / Average APEC load, Liver: Table S2; for Mortality rate % (Nr.): PC 88.9 (8/9); for Average lesion severity, Lung: PC 1.11; for Average lesion severity, Liver: PC 2.11; for Average lesion severity, Heart: PC 2.78; for Average lesion severity, Airsac: PC 3.11; for Average APEC load, Kidney: PC 7.84; for Average APEC load, Lung: PC 7.93; for Average APEC load, Heart: PC 8.37; for Average APEC load, Liver: PC 8.46
Description: Chickens were monitored for clinical signs for 8 DPI. Any chickens moribund during this period were humanely euthanized and necropsied to determine bacterial load in the internal organs (liver, heart, lung, and kidney). Internal organs were aseptically collected, weighed and suspended in 1× PBS, the amount of PBS added was adjusted based on the organ size to make a suspension, the organ size and amount of PBS added were included in the final calculation of the CFU. The samples were homogenized, serially diluted 10-fold, plated on MacConkey agar (Remel, CA, USA) containing 50 μg/mL rifampicin, and incubated at 37°C for 24 h to determine the CFU/g. Pathological lesions severity in internal organs (pericarditis, perihepatitis, airsacculitis, and lung congestion) was scored as described previously ([21], [59]). At 8 DPI, the remaining chickens were humanely euthanized and necropsied, lesions were scored, and the APEC load was quantified in internal organs as described above.
One-day-old broiler chickens (n = 10/group) (Case Farms Ohio Hatchery, Strasburg, OH, USA) were used in this experiment. QSI-5 was synthesized in-house in the Fuchs laboratory (College of Pharmacy, OSU) via reductive amination reaction of commercially available 3-phenylpropionaldehyde with 1-(4-methylbenzyl) piperazine in the presence of acetic acid and sodium triacetoxyborohydride (Fig. S4). QSI-5 was administered daily in drinking water containing 0.05% DMSO at doses of 1 mg/L, 5 mg/L, 10 mg/L, and 20 mg/L for seven consecutive days starting from day 4 to day 10 of age. The amount of drinking water given daily was calculated based on the age of chickens (http://www.poultryhub.org/nutrition/nutrient-requirements/water-consumption-rates-for-chickens/). Chickens were infected with Rif^r APEC O78 (5 × 10^6 CFU/chicken) on day 5 as described above. The PC (0.05% DMSO treated and infected) and NC (non-treated and non-infected) control groups were included. The clinical signs and the daily mortality were recorded for 8 DPI. Dead chickens were necropsied, and APEC load was quantified in the internal organs as mentioned above. At 8 DPI, the remaining chickens were necropsied, lesions were scored, and the APEC load was quantified in internal organs as described above.

[1] = PK profile of QSI-5 and SDM in chicken plasma (LC-MS); type: in vivo, chickens
Protocol: The amount of QSI-5 and SDM in chicken plasma was measured using LC-MS. The optimized dose of QSI-5 (1 mg/L) and the therapeutic dose of SDM (495.323 mg/L) (0.05%) were administered orally as a single dose. Blood was collected individually from five chickens per group at different time points (0 h, 0.5 h, 1 h, 2 h, 4 h, 8 h, 12 h, 24 h) after administration of QSI-5 and SDM in vacutainer EDTA (10.8 mg) tubes (Becton, Dickinson, NJ, USA), blood was placed on ice for 1 h to clot, plasma was separated by centrifuging at 2,000 × g for 10 min at 4°C and stored at −80°C °C for LC-MS analysis. Plasma protein was precipitated by adding cold methanol and 10 μL (1 μg/mL) of an internal standard (IS) heavy-labeled phenylalanine (dissolved in 0.1% formic acid) was added to each 100 μL aliquot. The mixture was then incubated at −20°C for 30 min and centrifuged at 1300 × g for 25 min at 2°C. Sixty μL of the supernatant was pipetted into LC vials. For standard calibration, solutions of 0.0, 0.001, 0.005, 0.01, 0.05, 0.1, 0.5, 1, and 5 μg/mL of QSI-5 and SDM were prepared and 20 μL of each standard solution was added to 80 μL of cold methanol and IS as mentioned above. All samples were run by injecting 5 μL on an Agilent Poroshell 120 SB-C18 (2 × 100 mm in diameter, 2.7 μm particle sizes). The LC system (Thermo Fisher Scientific UltiMate 3000 HPLC) was used with solvent A (10 mM ammonium formate and 0.1% formic acid) and solvent B (methanol with a flow rate of 200 μL/min). The gradient was set to 2% B at 2 min, increased from 2% to 20% at 5 min, 40% at 7.5 min, and reached 90% after 9 min. The gradient was sustained at 90% B for 11 min and then decreased to 2% at 12 min and was held for equilibration until the run ended after 15 min. The mass spectrometer (Thermo Fisher Scientific Quantiva Triple Quadrupole) was set to multiple reactions monitoring mode (SRM) with a heated electrospray ionization source (ESI) in positive mode at 3.5 kV. Drug targets were monitored for QSI-5 at transitions 309.26→105.1 m/z and 309.26→203.15 m/z at 28 and 20 V collision energy, respectively, and for SDM at transitions 311.11→156.11 m/z and 311.11→245.07 m/z at 21 and 18 V CE. The analysis of plasma samples was performed in Campus Chemical Instrumentation Center, Mass Spectrometry and Proteomics Facility (CCIC, MS&P), The Ohio State University (https://live-ccic.pantheonsite.io/MSP).

APEC = system: APEC; set-up: method as in PMID 30270715; details: in vitro; cited from earlier work
[2] = single oral dose (QSI-5 1 mg/L, SDM 495.323 mg/L)

Cc1ccc(CN2CCN(CCCc3ccccc3)CC2)cc1 [QSI-5]
mortality reduction compared with PC group (Rif^R APEC O78; QSI-5 1 mg/L in drinking water 7 days, s/c APEC O78 5 × 10^6 CFU/chicken): 58% | mortality reduction compared with PC group (Rif^R APEC O78; QSI-5 5 mg/L in drinking water 7 days): 25% | mortality reduction compared with PC group (Rif^R APEC O78; QSI-5 10 mg/L in drinking water 7 days): 50% | mortality reduction compared with PC group (Rif^R APEC O78; QSI-5 20 mg/L in drinking water 7 days): 25% | Mortality rate % (Nr.) (Rif^R APEC O78; QSI-5 1 mg/L, (3/8)): 37.5% | Average lesion severity, Lung (Rif^R APEC O78; QSI-5 1 mg/L): 0.33 | Average lesion severity, Liver (Rif^R APEC O78; QSI-5 1 mg/L): 1.25 | Average lesion severity, Heart (Rif^R APEC O78; QSI-5 1 mg/L): 1.63 | Average lesion severity, Airsac (Rif^R APEC O78; QSI-5 1 mg/L): 1.38 | Average APEC load, Kidney (Rif^R APEC O78; QSI-5 1 mg/L): 5.06 Log CFU/ g of tissue | Average APEC load, Lung (Rif^R APEC O78; QSI-5 1 mg/L): 5.68 Log CFU/ g of tissue | Average APEC load, Heart (Rif^R APEC O78; QSI-5 1 mg/L): 5.71 Log CFU/ g of tissue | Average APEC load, Liver (Rif^R APEC O78; QSI-5 1 mg/L): 5.33 Log CFU/ g of tissue | Mortality rate % (Nr.) (Rif^R APEC O78; QSI-5 5 mg/L, (6/9)): 66.6% | Average lesion severity, Lung (Rif^R APEC O78; QSI-5 5 mg/L): 0.38 | Average lesion severity, Liver (Rif^R APEC O78; QSI-5 5 mg/L): 1.33 | Average lesion severity, Heart (Rif^R APEC O78; QSI-5 5 mg/L): 1.89 | Average lesion severity, Airsac (Rif^R APEC O78; QSI-5 5 mg/L): 1.33 | Average APEC load, Kidney (Rif^R APEC O78; QSI-5 5 mg/L): 6.10 Log CFU/ g of tissue | Average APEC load, Lung (Rif^R APEC O78; QSI-5 5 mg/L): 5.86 Log CFU/ g of tissue | Average APEC load, Heart (Rif^R APEC O78; QSI-5 5 mg/L): 6.09 Log CFU/ g of tissue | Average APEC load, Liver (Rif^R APEC O78; QSI-5 5 mg/L): 6.03 Log CFU/ g of tissue | Mortality rate % (Nr.) (Rif^R APEC O78; QSI-5 10 mg/L, (4/9)): 44.4% | Average lesion severity, Lung (Rif^R APEC O78; QSI-5 10 mg/L): 0.78 | Average lesion severity, Liver (Rif^R APEC O78; QSI-5 10 mg/L): 2.11 | Average lesion severity, Heart (Rif^R APEC O78; QSI-5 10 mg/L): 2.44 | Average lesion severity, Airsac (Rif^R APEC O78; QSI-5 10 mg/L): 2.33 | Average APEC load, Kidney (Rif^R APEC O78; QSI-5 10 mg/L): 6.20 Log CFU/ g of tissue | Average APEC load, Lung (Rif^R APEC O78; QSI-5 10 mg/L): 6.37 Log CFU/ g of tissue | Average APEC load, Heart (Rif^R APEC O78; QSI-5 10 mg/L): 7.32 Log CFU/ g of tissue | Average APEC load, Liver (Rif^R APEC O78; QSI-5 10 mg/L): 5.84 Log CFU/ g of tissue | Mortality rate % (Nr.) (Rif^R APEC O78; QSI-5 20 mg/L, (6/9)): 66.6% | Average lesion severity, Lung (Rif^R APEC O78; QSI-5 20 mg/L): 0.44 | Average lesion severity, Liver (Rif^R APEC O78; QSI-5 20 mg/L): 1.22 | Average lesion severity, Heart (Rif^R APEC O78; QSI-5 20 mg/L): 2.11 | Average lesion severity, Airsac (Rif^R APEC O78; QSI-5 20 mg/L): 1.67 | Average APEC load, Kidney (Rif^R APEC O78; QSI-5 20 mg/L): 6.56 Log CFU/ g of tissue | Average APEC load, Lung (Rif^R APEC O78; QSI-5 20 mg/L): 6.58 Log CFU/ g of tissue | Average APEC load, Heart (Rif^R APEC O78; QSI-5 20 mg/L): 6.69 Log CFU/ g of tissue | Average APEC load, Liver (Rif^R APEC O78; QSI-5 20 mg/L): 6.53 Log CFU/ g of tissue | half-life ([1]; single oral dose): short half-life | time by which excreted ([1]; single oral dose): ≤ 24 HPT | maximum concentration in plasma (Cmax) [1, 2]: 0.76 ng/mL | time of peak concentration in plasma [1, 2]: 2 HPT | time at which absorbed / detected in blood ([1]; single oral dose (QSI-5 1 mg/L, SDM 495.323 mg/L), h posttreatment): 0.5 HPT | effect on the growth of APEC (APEC): does not affect the growth of APEC
